Assay results as given in patent US10799507B2, “5-(7H-pyrrolo[2,3-d]pyrimidin-4-yl)-5-azaspiro[2.5]octane-8-carboxylic acid derivatives as novel JAK kinase inhibitors” (LEO Pharma A/S, priority 2017, dated 2020).

What was measured:
[1] = target: JAK1 (Homo sapiens (Human), UniProt P23458); assay: JAK kinase assay (HTRF), JAK1; type: biochemical; conditions: catalytic domain, ATP at Km (7 μM)
In short: (§1)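 Catalytic-domain human JAK1 (GST-tagged, aa 850-1154) or His-tagged JAK2, baculovirus-expressed, phosphorylated 1 µM biotinylated TK peptide at Km ATP (JAK1 7 µM, 10 mM MgCl2, 50 nM SEB; JAK2 4 µM, 5 mM MgCl2) in pH 7.0 Hepes, 20-30 min RT. EDTA stop; overnight streptavidin-XL665/cryptate HTRF read.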

[2] = target: JAK3 (Homo sapiens (Human), UniProt P52333); assay: JAK kinase assay (HTRF), JAK3; type: biochemical; conditions: catalytic domain, ATP at Km (2 μM)
Sequence of JAK3 (P52333 822-1111): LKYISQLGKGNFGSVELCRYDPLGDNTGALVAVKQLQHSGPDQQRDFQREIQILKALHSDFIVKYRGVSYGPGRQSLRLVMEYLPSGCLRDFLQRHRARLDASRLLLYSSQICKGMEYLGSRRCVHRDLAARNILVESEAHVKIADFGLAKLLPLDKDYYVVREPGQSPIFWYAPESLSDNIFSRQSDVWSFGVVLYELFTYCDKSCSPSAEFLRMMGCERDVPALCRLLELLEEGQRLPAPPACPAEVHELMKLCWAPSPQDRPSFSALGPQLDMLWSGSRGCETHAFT
In short: (§2)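 Catalytic-domain human kinases, GST-tagged TYK2 (aa 871-1187) and His-tagged JAK3, phosphorylate 1 μM TK Substrate-Biotin for 20-30 min at RT in 50 mM Hepes pH 7.0, 5 mM MgCl2, ATP at Km (TYK2 13 μM with 50 nM SEB; JAK3 2 μM). Phosphorylation detected by HTRF.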

[3] = in vitro metabolic stability in human liver microsomes; type: in vitro ADME; conditions: human, liver microsomes, 0.5 μM compound, 0.5 mg/mL microsomes, NADPH, 40 min, 37° C.; read-out: Human liver microsome Clapp (apparent intrinsic clearance)
Experimental: To assess the in vitro metabolic stability, the compounds (0.5 μM) were incubated in duplicates with human liver microsomes (0.5 mg/mL) in phosphate buffer and NADPH, in 96-well plates for 40 min (37° C.), using a liquid handling robot (Hamilton Microlab Star). Sample aliquots were taken at 0, 5, 10, 20 and 40 min, and dispensed into cold acetonitrile, in order to stop the reactions. The plates were centrifuged for 30 minutes before the samples were analyzed using liquid chromatography coupled to a time-of-flight mass spectrometer (AB Sciex API5600). The compound depletion over time was used to estimate the elimination rate constant, from which the apparent intrinsic clearance, Clapp, was calculated and the values are listed in Table 2.

[4] = target: TYK2 (Homo sapiens (Human), UniProt P29597); assay: JAK kinase assay (HTRF), TYK2; type: biochemical; conditions: catalytic domain, ATP at Km (13 μM)
Sequence of TYK2 (P29597 871-1187): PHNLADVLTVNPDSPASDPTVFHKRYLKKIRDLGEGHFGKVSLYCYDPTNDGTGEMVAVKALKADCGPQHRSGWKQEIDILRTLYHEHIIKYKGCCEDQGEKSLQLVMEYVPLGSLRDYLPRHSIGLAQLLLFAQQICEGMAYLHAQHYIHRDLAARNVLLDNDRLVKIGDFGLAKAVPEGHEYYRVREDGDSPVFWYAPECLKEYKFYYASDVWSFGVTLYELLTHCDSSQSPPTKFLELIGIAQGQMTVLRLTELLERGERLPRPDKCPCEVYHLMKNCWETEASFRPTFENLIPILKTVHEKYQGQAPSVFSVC
In short: as §2

[5] = target: JAK2 (Homo sapiens (Human), UniProt O60674); assay: JAK kinase assay (HTRF), JAK2; type: biochemical; conditions: catalytic domain, ATP at Km (4 μM)
Sequence of JAK2 (O60674 849-1124): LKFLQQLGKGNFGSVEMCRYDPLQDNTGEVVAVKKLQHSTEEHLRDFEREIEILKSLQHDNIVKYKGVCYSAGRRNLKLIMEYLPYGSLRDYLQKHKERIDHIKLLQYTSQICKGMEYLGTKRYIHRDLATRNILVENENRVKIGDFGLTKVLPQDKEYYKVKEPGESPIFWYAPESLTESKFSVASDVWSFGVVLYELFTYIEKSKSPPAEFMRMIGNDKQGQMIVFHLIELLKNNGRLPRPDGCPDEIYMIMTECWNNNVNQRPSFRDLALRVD
In short: as §1

Sequence of JAK1 (P23458 850-1154): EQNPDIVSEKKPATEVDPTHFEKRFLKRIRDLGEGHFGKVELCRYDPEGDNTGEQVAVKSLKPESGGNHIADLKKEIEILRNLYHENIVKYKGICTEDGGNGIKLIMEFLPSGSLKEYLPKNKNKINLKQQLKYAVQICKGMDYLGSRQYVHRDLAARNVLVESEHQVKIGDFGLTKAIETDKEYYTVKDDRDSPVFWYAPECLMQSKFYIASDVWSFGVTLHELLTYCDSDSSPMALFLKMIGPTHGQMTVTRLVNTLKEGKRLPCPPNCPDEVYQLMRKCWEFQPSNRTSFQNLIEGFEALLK

Row | SMILES | EC50 [1] | EC50 [2] | CLint scaled at 0.5 μM [3] | EC50 [4] | EC50 [5]
1 | C[C@](CO)(NC(=O)[C@H]1CCN(c2ncnc3[nH]ccc23)CC12CC2)c1ccc(C#N)cc1 [Example 27, (8S)-N-[(1S)-1-(4-cyanophenyl)-2-hydroxy-1-methyl-ethyl]-5-(7H-pyrrolo[2,3-d]pyrimidin-4-yl)-5-azaspiro[2.5]octane-8-carboxamide] | 1.4 nM | 7 nM | 3.66 L/h/kg | 44.2 nM | 3.2 nM
2 | C[C@@](CO)(NC(=O)[C@H]1CCN(c2ncnc3[nH]ccc23)CC12CC2)c1ccc(C#N)cc1 [Example 28, (8S)-N-[(1R)-1-(4-cyanophenyl)-2-hydroxy-1-methyl-ethyl]-5-(7H-pyrrolo[2,3-d]pyrimidin-4-yl)-5-azaspiro[2.5]octane-8-carboxamide] | 1.4 nM | 9.8 nM | 7.92 L/h/kg | 55.8 nM | 5.5 nM
3 | N#Cc1ccc([C@@H](O)CNC(=O)[C@H]2CCN(c3ncnc4[nH]ccc34)CC23CC3)cc1 [Example 29, (8S)-N-[(2R)-2-(4-cyanophenyl)-2-hydroxy-ethyl]-5-(7H-pyrrolo[2,3-d]pyrimidin-4-yl)-5-azaspiro[2.5]octane-8-carboxamide] | 1.4 nM | 6.5 nM | 6.9 L/h/kg | 40.4 nM | 2.9 nM
4 | N#Cc1ccc(CNC(=O)[C@H]2CCN(c3ncnc4[nH]ccc34)CC23CC3)c(F)c1 [Example 31, (8S)-N-[(4-cyano-2-fluoro-phenyl)methyl]-5-(7H-pyrrolo[2,3-d]pyrimidin-4-yl)-5-azaspiro[2.5]octane-8-carboxamide] | 1.4 nM | 15.6 nM | 9.96 L/h/kg | 63.7 nM | 6.4 nM
5 | O=C(NC[C@@H](O)C1CCCC1)[C@H]1CCN(c2ncnc3[nH]ccc23)CC12CC2 [Example 32, (8S)-N-[(2S)-2-cyclopentyl-2-hydroxy-ethyl]-5-(7H-pyrrolo[2,3-d]pyrimidin-4-yl)-5-azaspiro[2.5]octane-8-carboxamide] | 1.8 nM | 8.3 nM | 9.54 L/h/kg | 25.4 nM | 5.2 nM
6 | O=C(N[C@@H](CO)c1ccc(F)cc1F)[C@H]1CCN(c2ncnc3[nH]ccc23)CC12CC2 [Example 34, (8S)-N-[(1R)-1-(2,4-difluorophenyl)-2-hydroxy-ethyl]-5-(7H-pyrrolo[2,3-d]pyrimidin-4-yl)-5-azaspiro[2.5]octane-8-carboxamide] | 1.9 nM | 6.4 nM | 4.14 L/h/kg | 32.9 nM | 3.7 nM
7 | O=C(NCC1(CO)CC(F)(F)C1)C1CCN(c2ncnc3[nH]ccc23)CC12CC2 (stereo not shown) [Example 35, N-[[3,3-difluoro-1-(hydroxymethyl)cyclobutyl]methyl]-5-(7H-pyrrolo[2,3-d]pyrimidin-4-yl)-5-azaspiro[2.5]octane-8-carboxamide] | 1.9 nM | 8.6 nM | 2.46 L/h/kg | 71.8 nM | 4.8 nM
8 | N#Cc1ccc([C@@H](O)CNC(=O)[C@H]2CCN(c3ncnc4[nH]ccc34)CC23CC3)nc1 [Example 36, (8S)-N-[(2S)-2-(5-cyano-2-pyridyl)-2-hydroxy-ethyl]-5-(7H-pyrrolo[2,3-d]pyrimidin-4-yl)-5-azaspiro[2.5]octane-8-carboxamide] | 2 nM | 25.2 nM | 4.32 L/h/kg | 70.5 nM | 8.7 nM
9 | Cc1cc(C#N)ccc1[C@H](CO)NC(=O)[C@H]1CCN(c2ncnc3[nH]ccc23)CC12CC2 [Example 37, (8S)-N-[(1R)-1-(4-cyano-2-methyl-phenyl)-2-hydroxy-ethyl]-5-(7H-pyrrolo[2,3-d]pyrimidin-4-yl)-5-azaspiro[2.5]octane-8-carboxamide] | 2 nM | 36.4 nM | 5.46 L/h/kg | 102 nM | 10.2 nM
10 | O=C(NCC(O)c1ccc(F)cn1)[C@H]1CCN(c2ncnc3[nH]ccc23)CC12CC2 (stereo partly drawn) [Example 38, (8S)-N-[2-(5-fluoro-2-pyridyl)-2-hydroxy-ethyl]-5-(7H-pyrrolo[2,3-d]pyrimidin-4-yl)-5-azaspiro[2.5]octane-8-carboxamide] | 2.2 nM | 33.6 nM | 4.38 L/h/kg | 32.1 nM | 9 nM
11 | N#Cc1ccc(C(O)CNC(=O)C2CCN(c3ncnc4[nH]ccc34)CC23CC3)cc1 (stereo not shown) [Example 39, N-[2-(4-cyanophenyl)-2-hydroxy-ethyl]-5-(7H-pyrrolo[2,3-d]pyrimidin-4-yl)-5-azaspiro[2.5]octane-8-carboxamide] | 2.4 nM | 11.5 nM | 11.2 L/h/kg | 75.4 nM | 4.8 nM
12 | Cc1cc([C@H](O)[C@H](C)NC(=O)[C@H]2CCN(c3ncnc4[nH]ccc34)CC23CC3)ccc1F [Example 40, (8S)-N-[(1S,2S)-2-(4-fluoro-3-methyl-phenyl)-2-hydroxy-1-methyl-ethyl]-5-(7H-pyrrolo[2,3-d]pyrimidin-4-yl)-5-azaspiro[2.5]octane-8-carboxamide] | 2.4 nM | 39.5 nM | > 12 L/h/kg | 40.6 nM | 8.3 nM
13 | C[C@H](NC(=O)[C@H]1CCN(c2ncnc3[nH]ccc23)CC12CC2)[C@@H](O)c1ccc(F)cn1 [Example 41, (8S)-N-[(1S,2R)-2-(5-fluoro-2-pyridyl)-2-hydroxy-1-methyl-ethyl]-5-(7H-pyrrolo[2,3-d]pyrimidin-4-yl)-5-azaspiro[2.5]octane-8-carboxamide] | 2.5 nM | 48.9 nM | 9.96 L/h/kg | 33.5 nM | 5 nM
14 | O=C(N[C@H](CO)C(=O)OCC1CC(F)(F)C1)[C@H]1CCN(c2ncnc3[nH]ccc23)CC12CC2 [Example 42, (3,3-difluorocyclobutyl)methyl (2R)-3-hydroxy-2-[[(8S)-5-(7H-pyrrolo[2,3-d]pyrimidin-4-yl)-5-azaspiro[2.5]octane-8-carbonyl]amino]propanoate] | 2.7 nM | 20.2 nM | > 12 L/h/kg | 51.3 nM | 6.7 nM
15 | C[C@H](NC(=O)[C@H]1CCN(c2ncnc3[nH]ccc23)CC12CC2)[C@@H](O)c1ccc(C#N)cc1 [Example 43, (8S)-N-[(1S,2S)-2-(4-cyanophenyl)-2-hydroxy-1-methyl-ethyl]-5-(7H-pyrrolo[2,3-d]pyrimidin-4-yl)-5-azaspiro[2.5]octane-8-carboxamide] | 2.8 nM | 8.8 nM | 9.96 L/h/kg | 131 nM | 5.2 nM
16 | Cc1cc([C@H](O)CNC(=O)[C@H]2CCN(c3ncnc4[nH]ccc34)CC23CC3)ncc1F [Example 44, (8S)-N-[(2R)-2-(5-fluoro-4-methyl-2-pyridyl)-2-hydroxy-ethyl]-5-(7H-pyrrolo[2,3-d]pyrimidin-4-yl)-5-azaspiro[2.5]octane-8-carboxamide] | 3.1 nM | 68.5 nM | > 12 L/h/kg | 63.2 nM | 15.8 nM
17 | C[C@H](NC(=O)[C@H]1CCN(c2ncnc3[nH]ccc23)CC12CC2)[C@H](O)c1ccc(F)cc1 [Example 45, (8S)-N-[(1S,2R)-2-(4-fluorophenyl)-2-hydroxy-1-methyl-ethyl]-5-(7H-pyrrolo[2,3-d]pyrimidin-4-yl)-5-azaspiro[2.5]octane-8-carboxamide] | 3.1 nM | 15.7 nM | > 12 L/h/kg | 37.9 nM | 4.6 nM
18 | C[C@H](NC(=O)[C@H]1CCN(c2ncnc3[nH]ccc23)CC12CC2)c1ccc(C#N)cn1 [Example 48, (8S)-N-[(1S)-1-(5-cyano-2-pyridyl)ethyl]-5-(7H-pyrrolo[2,3-d]pyrimidin-4-yl)-5-azaspiro[2.5]octane-8-carboxamide] | 3.2 nM | 40.3 nM | 2.88 L/h/kg | 128 nM | 10.2 nM
19 | O=C(NCC1(O)CCCC1)[C@H]1CCN(c2ncnc3[nH]ccc23)CC12CC2 [Example 49, (8S)-N-[(1-hydroxycyclopentyl)methyl]-5-(7H-pyrrolo[2,3-d]pyrimidin-4-yl)-5-azaspiro[2.5]octane-8-carboxamide] | 3.4 nM | 26.1 nM | 2.1 L/h/kg | 43.4 nM | 15.1 nM
20 | O=C(N[C@@H](CO)[C@H](O)c1ccc(F)cc1)[C@H]1CCN(c2ncnc3[nH]ccc23)CC12CC2 [Example 50, (8S)-N-[(1S,2R)-2-(4-fluorophenyl)-2-hydroxy-1-(hydroxymethyl)ethyl]-5-(7H-pyrrolo[2,3-d]pyrimidin-4-yl)-5-azaspiro[2.5]octane-8-carboxamide] | 3.5 nM | 22.7 nM | 6.54 L/h/kg | 53.2 nM | 7 nM
